Measurements as given in ChEMBL document CHEMBL1201862, “PubChem BioAssay data set” (2004).
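These data come from cells grown in 96-well plates and exposed to compound for 48 hours at five concentrations. The concentration for 50% growth inhibition is given as GI50.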 Activity calls are given as the source filed them. Rule as the data show it: active = GI50 up to about 1.1 µM and inactive = higher.

Assays:
Assay in all cases: NCI tumour cell line growth inhibition, 48 h
DMS-114 = tested on: DMS-114
HT-29 = tested on: HT-29
KM-20L2 = tested on: KM-20L2
SK-OV-3 = tested on: SK-OV-3
NCI-H23 = tested on: NCI-H23
DMS-273 = tested on: DMS-273
UACC-62 = tested on: UACC-62
Malme-3M = tested on: Malme-3M
SK-MEL-5 = tested on: SK-MEL-5
CAKI-1 = tested on: CAKI-1
SF-539 = tested on: SF-539
KM12 = tested on: KM12
UACC-257 = tested on: UACC-257
786-0 = tested on: 786-0
SK-MEL-2 = tested on: SK-MEL-2
UO-31 = tested on: UO-31
HOP-62 = tested on: HOP-62
IGROV-1 = tested on: IGROV-1
HOP-18 = tested on: HOP-18
NCI-H226 = tested on: NCI-H226
HCC 2998 = tested on: HCC 2998
TK-10 = tested on: TK-10
SNB-78 = tested on: SNB-78
HL-60 = tested on: HL-60
M14 = tested on: M14
SNB-75 = tested on: SNB-75
LOX IMVI = tested on: LOX IMVI
SN12C = tested on: SN12C
SF-295 = tested on: SF-295
A498 = tested on: A498
CCRF-CEM = tested on: CCRF-CEM
NCI-H522 = tested on: NCI-H522
SF-268 = tested on: SF-268
OVCAR-8 = tested on: OVCAR-8
U-251 = tested on: U-251
LXFL 529 = tested on: LXFL 529
SK-MEL-28 = tested on: SK-MEL-28
HCT-15 = tested on: HCT-15
ACHN = tested on: ACHN
SNB-19 = tested on: SNB-19
OVCAR-4 = tested on: OVCAR-4
OVCAR-5 = tested on: OVCAR-5
XF498 = tested on: XF498
A549 = tested on: A549
COLO 205 = tested on: COLO 205
OVCAR-3 = tested on: OVCAR-3
K562 = tested on: K562
HCT-116 = tested on: HCT-116
EKVX = tested on: EKVX
RXF 393 = tested on: RXF 393
RXF 631 = tested on: RXF 631
SR = tested on: SR
DLD-1 = tested on: DLD-1
SW-620 = tested on: SW-620
M19-MEL = tested on: M19-MEL
MOLT-4 = tested on: MOLT-4
NCI-H460 = tested on: NCI-H460
HOP-92 = tested on: HOP-92
RPMI-8226 = tested on: RPMI-8226

For CCSC1(SCC)CCN(/C=N/C(C)(C)C)C1, the GI50 (DMS-114) was 44.7 µM (inactive), the GI50 (HT-29) was > 100 µM (inactive) and the GI50 (KM-20L2) was > 100 µM (inactive). For the same molecule, the GI50 (SK-OV-3) was > 100 µM (inactive), the GI50 (NCI-H23) was > 100 µM (inactive) and the GI50 (DMS-273) was > 100 µM (inactive). The GI50 (UACC-62) was > 100 µM (inactive), the GI50 (Malme-3M) was > 100 µM (inactive) and the GI50 (SK-MEL-5) was > 100 µM (inactive). The GI50 (CAKI-1) was > 100 µM (inactive), the GI50 (SF-539) was > 100 µM (inactive) and the GI50 (KM12) was > 100 µM (inactive). The GI50 (UACC-257) was > 100 µM (inactive), the GI50 (786-0) was > 100 µM (inactive) and the GI50 (SK-MEL-2) was > 100 µM (inactive). The GI50 (UO-31) was > 100 µM (inactive), the GI50 (HOP-62) was > 100 µM (inactive) and the GI50 (IGROV-1) was > 100 µM (inactive). For the same molecule, the GI50 (HOP-18) was > 100 µM (inactive), the GI50 (NCI-H226) was > 100 µM (inactive) and the GI50 (HCC 2998) was > 100 µM (inactive). For the same molecule, the GI50 (TK-10) was > 100 µM (inactive), the GI50 (SNB-78) was > 100 µM (inactive) and the GI50 (HL-60) was 29.7 µM (inactive). For the same molecule, the GI50 (M14) was > 100 µM (inactive), the GI50 (SNB-75) was > 100 µM (inactive) and the GI50 (LOX IMVI) was 52.6 µM (inactive). For the same molecule, the GI50 (SN12C) was > 100 µM (inactive), the GI50 (SF-295) was > 100 µM (inactive) and the GI50 (A498) was > 100 µM (inactive). The GI50 (CCRF-CEM) was 76.4 µM (inactive), the GI50 (NCI-H522) was > 100 µM (inactive) and the GI50 (SF-268) was > 100 µM (inactive). For the same molecule, the GI50 (OVCAR-8) was > 100 µM (inactive), the GI50 (U-251) was > 100 µM (inactive) and the GI50 (LXFL 529) was > 100 µM (inactive). The GI50 (SK-MEL-28) was > 100 µM (inactive), the GI50 (HCT-15) was > 100 µM and the GI50 (ACHN) was > 100 µM (inactive). The GI50 (SNB-19) was > 100 µM (inactive), the GI50 (OVCAR-4) was > 100 µM (inactive) and the GI50 (OVCAR-5) was > 100 µM (inactive). The GI50 (XF498) was > 100 µM (inactive), the GI50 (A549) was > 100 µM (inactive) and the GI50 (COLO 205) was 54.7 µM (inactive). For the same molecule, the GI50 (OVCAR-3) was > 100 µM (inactive), the GI50 (K562) was > 100 µM (inactive) and the GI50 (HCT-116) was 78 µM (inactive). For the same molecule, the GI50 (EKVX) was > 100 µM (inactive), the GI50 (RXF 393) was 67.8 µM (inactive) and the GI50 (RXF 631) was > 100 µM (inactive). For the same molecule, the GI50 (SR) was > 100 µM (inactive), the GI50 (DLD-1) was 62.4 µM (inactive) and the GI50 (SW-620) was 19.5 µM (inactive). For the same molecule, the GI50 (M19-MEL) was > 100 µM (inactive), the GI50 (MOLT-4) was > 100 µM (inactive) and the GI50 (NCI-H460) was > 100 µM (inactive).

In the case of COC(=O)C1=C(O)c2cc(OC)c(OC)cc2C(c2ccc(OC)c(OC)c2)C1 (centres undefined), the GI50 (DMS-114) is reported as > 100 µM (inactive), the GI50 (HT-29) is reported as 71.6 µM (inactive) and the GI50 (KM-20L2) is reported as 86.7 µM (inactive). For the same molecule, the GI50 (SK-OV-3) was > 100 µM (inactive), the GI50 (NCI-H23) was > 100 µM (inactive) and the GI50 (DMS-273) was 67.3 µM (inactive). For the same molecule, the GI50 (UACC-62) was 99.8 µM (inactive), the GI50 (Malme-3M) was > 100 µM (inactive) and the GI50 (HOP-92) was > 100 µM (inactive). For the same molecule, the GI50 (SK-MEL-5) was > 100 µM (inactive), the GI50 (CAKI-1) was > 100 µM (inactive) and the GI50 (RPMI-8226) was > 100 µM (inactive). The GI50 (SF-539) was > 100 µM (inactive), the GI50 (KM12) was 76.9 µM (inactive) and the GI50 (UACC-257) was > 100 µM (inactive). For the same molecule, the GI50 (786-0) was > 100 µM (inactive), the GI50 (SK-MEL-2) was > 100 µM (inactive) and the GI50 (UO-31) was > 100 µM (inactive). For the same molecule, the GI50 (HOP-62) was > 100 µM (inactive), the GI50 (IGROV-1) was > 100 µM (inactive) and the GI50 (HOP-18) was > 100 µM (inactive). For the same molecule, the GI50 (NCI-H226) was > 100 µM (inactive), the GI50 (HCC 2998) was > 100 µM (inactive) and the GI50 (TK-10) was > 100 µM (inactive). For the same molecule, the GI50 (SNB-78) was > 100 µM (inactive), the GI50 (HL-60) was > 100 µM (inactive) and the GI50 (M14) was > 100 µM (inactive). The GI50 (SNB-75) was > 100 µM (inactive), the GI50 (LOX IMVI) was 69.5 µM (inactive) and the GI50 (SN12C) was 51.2 µM (inactive). The GI50 (SF-295) was 46.9 µM (inactive), the GI50 (A498) was 36.3 µM (inactive) and the GI50 (CCRF-CEM) was > 100 µM (inactive). The GI50 (SF-268) was 69.3 µM (inactive), the GI50 (OVCAR-8) was 93.1 µM (inactive) and the GI50 (U-251) was > 100 µM (inactive). The GI50 (LXFL 529) was 43.3 µM (inactive), the GI50 (SK-MEL-28) was > 100 µM (inactive) and the GI50 (HCT-15) was 78.7 µM. For the same molecule, the GI50 (ACHN) was 77.3 µM (inactive), the GI50 (OVCAR-4) was > 100 µM (inactive) and the GI50 (OVCAR-5) was > 100 µM (inactive). The GI50 (XF498) was 94.6 µM (inactive), the GI50 (A549) was > 100 µM (inactive) and the GI50 (COLO 205) was 38.6 µM (inactive). The GI50 (OVCAR-3) was > 100 µM (inactive), the GI50 (K562) was > 100 µM (inactive) and the GI50 (HCT-116) was 56.4 µM (inactive). For the same molecule, the GI50 (EKVX) was > 100 µM (inactive), the GI50 (RXF 393) was > 100 µM (inactive) and the GI50 (RXF 631) was 49.1 µM (inactive). For the same molecule, the GI50 (SR) was 38.5 µM (inactive), the GI50 (DLD-1) was 44 µM (inactive) and the GI50 (SW-620) was 54.8 µM (inactive). The GI50 (M19-MEL) was > 100 µM (inactive), the GI50 (MOLT-4) was 88.5 µM (inactive) and the GI50 (NCI-H460) was 66.7 µM (inactive).
